In assay [1] the target is T1, Adenosine receptor A1 (Homo sapiens) (UniProt P30542).
T1 sequence (whole entry): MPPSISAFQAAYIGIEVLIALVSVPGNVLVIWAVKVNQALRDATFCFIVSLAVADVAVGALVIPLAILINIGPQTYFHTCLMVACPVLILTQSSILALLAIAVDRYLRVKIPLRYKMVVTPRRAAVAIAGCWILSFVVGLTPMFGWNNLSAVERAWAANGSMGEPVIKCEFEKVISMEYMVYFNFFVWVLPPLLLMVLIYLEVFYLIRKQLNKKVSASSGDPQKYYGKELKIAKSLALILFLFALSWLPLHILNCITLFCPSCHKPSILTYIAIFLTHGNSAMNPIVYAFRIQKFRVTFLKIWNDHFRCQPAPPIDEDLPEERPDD
Description: Maximum stimulation against human adenosine A1 receptor.

Assay [2] deals with T2, Adenosine receptor A3 (Homo sapiens) (UniProt P0DMS8).
T2 sequence (whole entry): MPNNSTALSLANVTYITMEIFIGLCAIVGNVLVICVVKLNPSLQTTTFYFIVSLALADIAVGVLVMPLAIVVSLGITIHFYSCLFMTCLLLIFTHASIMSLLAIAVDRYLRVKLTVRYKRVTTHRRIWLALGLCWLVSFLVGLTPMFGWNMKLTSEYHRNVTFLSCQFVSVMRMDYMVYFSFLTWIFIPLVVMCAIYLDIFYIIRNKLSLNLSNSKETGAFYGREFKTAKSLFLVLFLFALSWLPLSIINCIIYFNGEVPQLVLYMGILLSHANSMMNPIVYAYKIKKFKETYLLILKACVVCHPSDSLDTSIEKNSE
Description: Maximum stimulation against human adenosine A3 receptor.

The target in assay [3] is T3, Adenosine receptor A1 (Rattus norvegicus, UniProt P25099).
T3 sequence (P25099 whole entry): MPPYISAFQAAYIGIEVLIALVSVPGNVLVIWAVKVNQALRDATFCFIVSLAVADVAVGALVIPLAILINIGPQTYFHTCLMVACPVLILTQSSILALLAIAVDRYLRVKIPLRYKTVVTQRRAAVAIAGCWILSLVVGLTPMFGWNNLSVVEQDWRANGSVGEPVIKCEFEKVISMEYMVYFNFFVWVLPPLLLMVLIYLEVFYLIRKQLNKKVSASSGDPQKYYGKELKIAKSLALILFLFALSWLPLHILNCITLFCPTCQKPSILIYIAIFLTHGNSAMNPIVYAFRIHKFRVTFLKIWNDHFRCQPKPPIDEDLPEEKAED

In assay [4] the target is T4, Adenosine receptor A1 (Homo sapiens, UniProt P30542).
T4 sequence (P30542 whole entry): T1 sequence (whole entry)
In words: Stimulation of [35S]GTP-gamma-S, binding to human adenosine A1 receptor. In kind it is functional.

The target in assay [5] is T3, Adenosine receptor A1. The source holds these as a separate data set.
Assay [6] addresses T5, Adenosine receptor A1 (Rattus norvegicus) (UniProt P25099).
T5 sequence (whole entry): T3 sequence (P25099 whole entry)
Description: Maximum stimulation against adenosine A1 receptor of rat cerebral cortical membrane.

Assay [7] deals with Adenosine receptor A2a (Rattus norvegicus, UniProt P30543).
Assay [8] has as its target Adenosine receptors; A1 & A3 (Rattus norvegicus) (UniProt P25099+P28647). In words: Relative binding affinity for Adenosine A1 and A3 receptors. In kind it is protein assay.
Assay [9] concerns the target T6, Adenosine receptor A3 (Homo sapiens, UniProt P0DMS8).
T6 sequence (P0DMS8 whole entry): T2 sequence (whole entry)
In words: Stimulation of [35S]GTP-gamma-S, against human adenosine A3 receptor. The assay is classed as functional. In general terms: GTPγS resists hydrolysis and so accumulates on activated G proteins.

The next assay deals with T7, Adenosine receptor A2b (Homo sapiens, UniProt P29275).
T7 sequence (P29275 whole entry): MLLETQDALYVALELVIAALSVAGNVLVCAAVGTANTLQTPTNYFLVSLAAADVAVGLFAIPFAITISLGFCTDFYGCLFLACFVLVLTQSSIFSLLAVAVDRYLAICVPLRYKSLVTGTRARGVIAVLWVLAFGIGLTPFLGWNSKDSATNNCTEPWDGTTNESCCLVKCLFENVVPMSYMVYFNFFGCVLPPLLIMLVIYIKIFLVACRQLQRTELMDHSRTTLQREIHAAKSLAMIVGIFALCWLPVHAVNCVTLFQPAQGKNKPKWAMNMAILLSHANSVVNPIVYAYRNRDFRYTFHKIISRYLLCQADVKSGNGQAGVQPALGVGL
In words: biochemical.

Assay [10] concerns the target T6, Adenosine receptor A3. In words: Displacement of [125I]- AB-MECA from human adenosine A3 receptor expressed in HEK cells. The assay is classed as cell-based, HEK293.
Assay [11] addresses T8, Adenosine receptor A3 (Rattus norvegicus, UniProt P28647).
T8 sequence (P28647 whole entry): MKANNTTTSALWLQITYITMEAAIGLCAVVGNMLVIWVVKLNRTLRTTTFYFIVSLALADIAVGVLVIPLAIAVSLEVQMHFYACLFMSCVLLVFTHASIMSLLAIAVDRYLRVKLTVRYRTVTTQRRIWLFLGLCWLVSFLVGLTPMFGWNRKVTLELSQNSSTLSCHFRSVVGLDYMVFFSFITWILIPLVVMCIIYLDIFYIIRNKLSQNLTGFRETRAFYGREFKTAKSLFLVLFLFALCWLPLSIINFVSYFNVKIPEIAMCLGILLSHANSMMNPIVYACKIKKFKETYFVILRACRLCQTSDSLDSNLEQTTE
In words: Displacement of [125I]- AB-MECA from rat adenosine A3 receptor expressed in CHO cells. In kind it is cell-based.

The target of assay [12] is T9, Adenosine receptor A2b (Homo sapiens) (UniProt P29275).
T9 sequence (whole entry): T7 sequence (P29275 whole entry)
In words: Displacement of [3H]- ZM-241385 from human adenosine A2B receptor expressed in HEK cell at 50 uM. In kind it is cell-based. The note with it: HEK293. (In general: Loss of bound radioactivity is the signal in a displacement assay; it reports binding, not function.)

For assay [13], the target named is Adenosine receptor A2a (Homo sapiens, UniProt P29274). Description: Displacement of [3H]ZM241385 from human adenosine A2A receptor expressed in HEK cells.
The target of assay [14] is T6, Adenosine receptor A3. Description: Displacement of [125I]- AB-MECA from human adenosine A3 receptor expressed in HEK cell in the absence of ADA. The assay is classed as cell-based, HEK293.
For assay [15], the target named is T5, Adenosine receptor A1 (Rattus norvegicus). In words: Displacement of [3H]R-PIA from adenosine A1 receptor in rat brain membranes at 100 uM. The assay is classed as cell membranes.
Assay [16] addresses T9, Adenosine receptor A2b (Homo sapiens). In words: Displacement of [3H]ZM241,385 binding to human adenosine A2B receptor expressed in HEK cells at 100 uM. The assay is classed as cell-based. The note with it: HEK293.
Assay [17] deals with Adenosine receptor A2a (Rattus norvegicus) (UniProt P30543). In words: Displacement of [3H]-CGS- 21680 from adenosine A2A receptor of rat striatal membranes at 100 uM. In kind it is cell membranes. The note with it: Membrane.
Sequence of Adenosine receptor A2a (Rattus norvegicus) (P30543 whole entry): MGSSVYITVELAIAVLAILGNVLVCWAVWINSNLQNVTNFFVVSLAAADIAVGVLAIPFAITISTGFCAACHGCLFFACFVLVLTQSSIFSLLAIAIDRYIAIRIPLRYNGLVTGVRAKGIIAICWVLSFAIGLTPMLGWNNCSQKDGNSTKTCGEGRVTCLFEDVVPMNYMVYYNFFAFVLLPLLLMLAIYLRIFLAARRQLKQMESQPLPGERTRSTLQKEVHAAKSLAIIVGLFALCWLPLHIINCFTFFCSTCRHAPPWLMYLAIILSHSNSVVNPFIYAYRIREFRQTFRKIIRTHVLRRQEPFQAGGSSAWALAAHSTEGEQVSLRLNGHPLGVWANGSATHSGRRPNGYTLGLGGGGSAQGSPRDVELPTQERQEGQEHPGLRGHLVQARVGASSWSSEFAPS

Sequence of Adenosine receptor A2a (Rattus norvegicus, UniProt P30543) (P30543 whole entry): as above
Sequence of Adenosine receptor A2a (Homo sapiens, UniProt P29274) (P29274 whole entry): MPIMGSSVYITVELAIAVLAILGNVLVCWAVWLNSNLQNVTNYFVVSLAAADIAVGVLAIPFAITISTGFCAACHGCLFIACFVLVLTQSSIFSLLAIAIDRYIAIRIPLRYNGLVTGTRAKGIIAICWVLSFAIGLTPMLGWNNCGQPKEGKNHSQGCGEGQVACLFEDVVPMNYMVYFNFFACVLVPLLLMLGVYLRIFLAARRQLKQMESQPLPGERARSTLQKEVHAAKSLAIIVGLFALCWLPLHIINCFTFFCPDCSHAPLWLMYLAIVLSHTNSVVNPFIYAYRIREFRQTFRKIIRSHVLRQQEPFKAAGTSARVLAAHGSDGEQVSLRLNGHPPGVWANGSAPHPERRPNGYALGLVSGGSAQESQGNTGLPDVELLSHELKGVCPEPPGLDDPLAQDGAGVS

For the compound `OC[C@@]12C[C@@H]1[C@@H](n1cnc3c(NCc4cccc(I)c4)nc(Cl)nc31)[C@H](O)[C@@H]2O`, the Max amounted to 91% in [1], 22% in assay [2] and 48% in assay [6]. The EC50 on Adenosine receptor A1 [3] turned out to be 684 nM; on Adenosine receptor A1 [4], 142 nM; at Adenosine receptor A3 [9], 0.67 nM. In addition, the results for the Ki at Adenosine receptor A1 [5], at Adenosine receptor A2a [7] and on Adenosine receptor A2b were 141 nM, 732 nM and 41000 nM, respectively. Besides, in [8], the Ratio came to 63.
As for `CCNC(=O)[C@H]1O[C@@H](n2cnc3c(N)ncnc32)[C@H](O)[C@@H]1O`, the Max in [2] stood at 100%.
On to `OC[C@@]12C[C@@H]1[C@@H](n1cnc3c(NCc4cccc(I)c4)ncnc31)[C@H](O)[C@@H]2O`, for which the Max in assay [1] is 86%; in assay [2] it was 45.3%. Also, the figures for the inhibition constant Ki at Adenosine receptor A3 [10], at Adenosine receptor A2a [7] and at Adenosine receptor A2b were 4.13 nM, 601 nM and 12100 nM, respectively. The EC50 on Adenosine receptor A1 [4] stood at 218 nM; on Adenosine receptor A3 [9] it was 0.7 nM.
In the case of `Nc1ncnc2c1ncn2[C@@H]1O[C@H](CO)[C@@H](O)[C@H]1O` [ADENOSINE], affinity at Adenosine receptor A3 [11] was put at a Ki of 1000 nM.
As to `OC[C@H]1O[C@@H](n2cnc3c(NC4CCCC4)ncnc32)[C@H](O)[C@@H]1O` [N6-CYCLOPENTYLADENOSINE], the Max in assay [1] and in assay [2] was 100% throughout. On Adenosine receptor A2a [7], this compound came in with an inhibitory constant (Ki) of 857 nM.
As for `OC[C@H]1O[C@@H](n2cnc3c(NCc4cccc(I)c4)ncnc32)[C@H](O)[C@@H]1O`, the results for the Max in assay [1], in [2] and in assay [6] were 91%, 100% and 95%, respectively.
With `Nc1ncnc2c1ncn2[C@H]1[C@H](O)[C@H](O)[C@]2(CO)C[C@H]12`, in [12], the Displacement turned out to be 35%. In addition, the figures for the inhibitory constant (Ki) on Adenosine receptor A1 [5], on Adenosine receptor A2a [13] and on Adenosine receptor A3 [14] were 1680 nM, 22500 nM and 404 nM, respectively. Besides, the Ratio in assay [8] stood at 4.2.
As to `Nc1ncnc2c1ncn2[C@@]12C[C@H]1[C@H](CO)[C@@H](O)[C@H]2O`, the Displacement was 20% in assay [12] and 15% in assay [15]. In addition, the Ki on Adenosine receptor A2a [13] was over 100000 nM; on Adenosine receptor A3 [14], 62500 nM. The Ratio in assay [8] is over 1.
Take `OC[C@@]12C[C@@H]1[C@@H](n1cnc3c(NC4CCCC4)nc(Cl)nc31)[C@H](O)[C@@H]2O`: the values for the Max in assay [1], in [2] and in assay [6] were 97%, 15% and 96%, respectively. Also, the values for the EC50 at Adenosine receptor A1 [3], on Adenosine receptor A1 [4] and on Adenosine receptor A3 [9] were 145 nM, 31.2 nM and over 10000 nM, respectively. The inhibitory constant (Ki) on Adenosine receptor A3 [10] came to 466 nM; on Adenosine receptor A1 [5] it was 8.76 nM; on Adenosine receptor A2a [7], 3390 nM. Besides, the Displacement in assay [16] was found to be 27%. In addition, the Ratio in assay [8] was 0.019.
In the case of `OC[C@H]1C[C@@H](n2cnc3c(NCc4cccc(I)c4)ncnc32)[C@H](O)[C@@H]1O`, the figures for the Max in assay [1] and in assay [2] were 5% and 14%, respectively. For the same compound, in [17], the Displacement is under 10%. In addition, the inhibition constant Ki was determined as 1960 nM on Adenosine receptor A3 [10] and 25900 nM at Adenosine receptor A1 [5]. Besides, the EC50 on Adenosine receptor A1 [4] and on Adenosine receptor A3 [9] was over 10000 nM in each case. The Ratio in [8] was determined as 13.
On to `OC[C@@]12C[C@@H]1[C@@H](n1cnc3c(NC4CCCC4)ncnc31)[C@H](O)[C@@H]2O`, for which the Max in assay [1] came out at 102%; in assay [2] it was 14%; in assay [6] it was 75%. Also, the EC50 is 100 nM on Adenosine receptor A1 [3], 21.5 nM at Adenosine receptor A1 [4] and over 10000 nM at Adenosine receptor A3 [9]. Besides, the Ki at Adenosine receptor A3 [10] was 170 nM; at Adenosine receptor A1 [5], 5.06 nM; at Adenosine receptor A2a [7], 6800 nM; on Adenosine receptor A2b, 139000 nM. Further, the Ratio in assay [8] was 0.03.

In general, EC50 refers to the concentration giving half of the maximal effect. Usually Ki stands for the dissociation constant of the complex between target and ligand, obtained from inhibition or displacement. A higher Ki goes with a looser hold on the target.

(Values after ChEMBL document CHEMBL1133730 (J Med Chem, 2000).)
